For the assay, the system named is T1, βgal5.
T1 construct: gene AUR.contig-100_1620_7; GH42; N-terminal 6-His with TEV site (pET-TEV), E. coli BL21(DE3), Ni-NTA
In words: nitrophenol release, absorbance […] nm. The following applies: buffer Z (phosphate, KCl, MgSO4), 30 °C; 2.5-20 mM substrate; read-out: Km (mM) / ONPG. Type of assay: biochemical.

For the molecule `O=[N+]([O-])c1ccccc1O[C@@H]1O[C@H](CO)[C@H](O)[C@H](O)[C@H]1O` [2-nitrophenyl-β-D-galactopyranoside], the Km stood at 14.5 mM.

(Values after paper PMC7823827, “β-Galactosidases from a Sequence-Based Metagenome: Cloning, Expression, Purification and Characterization” (Microorganisms, 2020).)
